{"source": "ChEMBL document CHEMBL1201862", "about": "“PubChem BioAssay data set” (2004)", "key": {"Insulin-degrading enzyme": {"biological_target": "T1, Insulin-degrading enzyme (Homo sapiens, UniProt P14735)", "T1 sequence (P14735 whole entry)": "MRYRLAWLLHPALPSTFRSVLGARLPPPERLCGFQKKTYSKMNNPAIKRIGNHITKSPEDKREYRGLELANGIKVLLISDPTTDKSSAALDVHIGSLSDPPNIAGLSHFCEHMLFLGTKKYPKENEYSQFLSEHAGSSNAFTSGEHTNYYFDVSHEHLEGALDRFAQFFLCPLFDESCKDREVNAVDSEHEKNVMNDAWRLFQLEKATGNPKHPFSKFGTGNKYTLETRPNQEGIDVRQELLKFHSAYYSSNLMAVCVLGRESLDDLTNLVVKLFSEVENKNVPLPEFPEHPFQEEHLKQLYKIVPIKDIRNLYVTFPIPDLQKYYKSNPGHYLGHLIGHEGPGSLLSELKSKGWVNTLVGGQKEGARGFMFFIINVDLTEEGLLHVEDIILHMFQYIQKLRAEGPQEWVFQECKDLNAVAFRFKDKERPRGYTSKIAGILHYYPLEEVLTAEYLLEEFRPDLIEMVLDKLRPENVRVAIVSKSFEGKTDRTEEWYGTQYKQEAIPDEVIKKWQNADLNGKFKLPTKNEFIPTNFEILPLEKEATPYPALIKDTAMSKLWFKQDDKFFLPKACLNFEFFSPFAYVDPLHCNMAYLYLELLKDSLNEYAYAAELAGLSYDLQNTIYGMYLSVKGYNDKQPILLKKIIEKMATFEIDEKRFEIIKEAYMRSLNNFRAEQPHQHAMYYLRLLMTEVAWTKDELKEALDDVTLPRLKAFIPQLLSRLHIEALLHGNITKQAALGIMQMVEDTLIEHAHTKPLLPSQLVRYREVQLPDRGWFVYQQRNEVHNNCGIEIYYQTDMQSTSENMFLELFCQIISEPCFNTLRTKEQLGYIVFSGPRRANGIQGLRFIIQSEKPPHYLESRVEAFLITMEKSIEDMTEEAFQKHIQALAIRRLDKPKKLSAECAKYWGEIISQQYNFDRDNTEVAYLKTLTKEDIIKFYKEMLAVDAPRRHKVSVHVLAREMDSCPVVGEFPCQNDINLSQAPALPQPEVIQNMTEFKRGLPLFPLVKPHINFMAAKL", "experiment": "Dose Response: Fluorescence polarization-based cell-based high throughput dose response assay for inhibitors of insulin-degrading enzyme (IDE). [Related pubchem assays: 434962 (Primary screen (IDE inhibitors in singlicate)), 449730 (Counterscreen (Cytotoxicity in triplicate)), 435028 (Confirmation (IDE inhibitors in triplicate)), 434984 (Summary …", "format": "functional"}, "[1]": {"experiment": "Counterscreen for IDE inhibitors: Luminescence-based cell-based high throughput dose response assay to identify compounds that are cytotoxic to HEK cells. [Related pubchem assays: 434962 (Primary screen (IDE inhibitors in singlicate)), 449730 (Counterscreen (Cytotoxicity in triplicate)), 435028 (Confirmation (IDE inhibitors in triplicate)) …", "format": "functional", "conditions": "HEK293"}, "[2]": {"biological_target": "DNA dC->dU-editing enzyme APOBEC-3A (Homo sapiens, UniProt P31941)", "sequence (P31941 whole entry)": "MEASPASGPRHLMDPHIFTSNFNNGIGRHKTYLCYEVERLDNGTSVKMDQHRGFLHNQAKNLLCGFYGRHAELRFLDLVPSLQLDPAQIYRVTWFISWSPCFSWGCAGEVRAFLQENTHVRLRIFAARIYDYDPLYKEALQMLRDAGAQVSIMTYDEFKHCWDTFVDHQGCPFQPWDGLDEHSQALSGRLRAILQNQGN", "experiment": "Dose Response confirmation of small molecule APOBEC3A DNA Deaminase Inhibitors via a fluorescence-based single-stranded DNA deaminase assay. [Related pubchem assays (depositor defined):AID493011, AID493024]", "format": "functional"}, "[3]": {"biological_target": "DNA dC->dU-editing enzyme APOBEC-3G (Homo sapiens, UniProt Q9HC16)", "sequence (Q9HC16 whole entry)": "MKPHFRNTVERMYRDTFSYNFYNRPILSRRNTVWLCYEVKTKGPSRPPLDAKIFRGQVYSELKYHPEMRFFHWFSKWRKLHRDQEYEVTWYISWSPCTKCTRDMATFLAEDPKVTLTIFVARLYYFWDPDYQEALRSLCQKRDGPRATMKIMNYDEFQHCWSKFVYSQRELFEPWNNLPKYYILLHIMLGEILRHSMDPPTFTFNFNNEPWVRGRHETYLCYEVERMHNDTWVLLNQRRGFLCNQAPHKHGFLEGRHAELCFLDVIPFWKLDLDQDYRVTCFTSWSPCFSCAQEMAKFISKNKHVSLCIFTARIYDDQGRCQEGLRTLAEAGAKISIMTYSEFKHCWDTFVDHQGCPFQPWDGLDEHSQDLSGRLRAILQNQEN", "format": "functional"}, "[4]": {"biological_target": "T2, Replicative DNA helicase DnaB (Mycobacterium tuberculosis, UniProt P9WMR3)", "T2 sequence (P9WMR3 whole entry)": "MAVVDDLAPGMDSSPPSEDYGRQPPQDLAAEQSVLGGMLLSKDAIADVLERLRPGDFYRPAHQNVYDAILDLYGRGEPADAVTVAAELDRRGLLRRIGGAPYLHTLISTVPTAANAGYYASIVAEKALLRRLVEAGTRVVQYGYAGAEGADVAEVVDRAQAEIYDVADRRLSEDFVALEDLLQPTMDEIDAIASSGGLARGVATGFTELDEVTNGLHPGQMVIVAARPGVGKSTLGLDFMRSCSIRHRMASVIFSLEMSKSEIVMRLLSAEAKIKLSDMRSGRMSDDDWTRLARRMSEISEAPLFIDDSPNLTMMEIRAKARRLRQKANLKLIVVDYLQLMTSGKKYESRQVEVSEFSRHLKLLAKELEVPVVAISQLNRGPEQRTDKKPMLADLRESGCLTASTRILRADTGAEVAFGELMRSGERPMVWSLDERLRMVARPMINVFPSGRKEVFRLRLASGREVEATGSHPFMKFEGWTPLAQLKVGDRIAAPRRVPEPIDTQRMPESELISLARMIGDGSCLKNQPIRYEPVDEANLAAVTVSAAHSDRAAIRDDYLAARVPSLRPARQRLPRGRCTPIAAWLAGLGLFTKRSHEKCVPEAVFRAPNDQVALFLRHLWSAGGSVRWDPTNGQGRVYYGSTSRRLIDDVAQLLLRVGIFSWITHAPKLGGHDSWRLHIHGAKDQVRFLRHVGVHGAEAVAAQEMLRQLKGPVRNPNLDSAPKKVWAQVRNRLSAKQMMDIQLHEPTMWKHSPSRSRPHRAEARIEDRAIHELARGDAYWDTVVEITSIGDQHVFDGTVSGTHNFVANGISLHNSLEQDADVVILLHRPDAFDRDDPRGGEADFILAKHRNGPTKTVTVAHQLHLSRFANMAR", "experiment": "DnaB intein splicing inhibitors, dose response, biochemical, cell-free fluorescence (AID 449749)", "format": "functional"}, "[5]": {"biological_target": "T3, Mannose-6-phosphate isomerase (Homo sapiens, UniProt P34949)", "T3 sequence (P34949 whole entry)": "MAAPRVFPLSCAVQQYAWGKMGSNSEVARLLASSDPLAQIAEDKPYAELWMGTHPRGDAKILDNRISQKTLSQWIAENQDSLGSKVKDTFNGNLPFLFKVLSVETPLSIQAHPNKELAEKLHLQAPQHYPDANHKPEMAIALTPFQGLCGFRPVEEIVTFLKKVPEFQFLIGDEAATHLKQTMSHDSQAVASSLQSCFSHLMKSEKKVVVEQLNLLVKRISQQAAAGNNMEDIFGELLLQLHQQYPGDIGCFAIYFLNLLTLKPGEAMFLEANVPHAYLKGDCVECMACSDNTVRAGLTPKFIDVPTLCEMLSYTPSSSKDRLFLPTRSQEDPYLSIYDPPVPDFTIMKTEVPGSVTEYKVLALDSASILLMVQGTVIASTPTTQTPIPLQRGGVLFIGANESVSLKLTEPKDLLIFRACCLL", "experiment": "inhibitors of human PMI, primary screen, biochemical, fluorescence intensity, coupled assay (AID 1209)"}, "Protein skinhead-1": {"biological_target": "T4, Protein skinhead-1 (Caenorhabditis elegans, UniProt P34707)", "T4 sequence (P34707 whole entry)": "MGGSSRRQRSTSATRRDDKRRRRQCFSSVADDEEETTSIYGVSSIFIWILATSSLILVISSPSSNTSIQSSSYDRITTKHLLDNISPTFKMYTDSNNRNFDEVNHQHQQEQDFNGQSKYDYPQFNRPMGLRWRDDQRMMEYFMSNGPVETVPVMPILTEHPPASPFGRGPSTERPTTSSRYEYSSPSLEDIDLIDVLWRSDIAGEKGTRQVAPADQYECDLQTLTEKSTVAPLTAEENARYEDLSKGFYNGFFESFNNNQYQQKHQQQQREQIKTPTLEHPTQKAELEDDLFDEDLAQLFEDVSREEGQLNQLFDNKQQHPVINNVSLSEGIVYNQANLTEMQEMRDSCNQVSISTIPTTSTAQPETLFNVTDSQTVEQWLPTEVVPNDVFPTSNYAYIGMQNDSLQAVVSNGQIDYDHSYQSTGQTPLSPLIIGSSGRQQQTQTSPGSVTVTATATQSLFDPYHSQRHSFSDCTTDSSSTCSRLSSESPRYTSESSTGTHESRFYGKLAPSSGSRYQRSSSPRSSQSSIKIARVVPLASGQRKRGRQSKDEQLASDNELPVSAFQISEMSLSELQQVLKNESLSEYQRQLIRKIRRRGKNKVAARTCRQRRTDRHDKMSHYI", "format": "functional"}, "Protein RecA": {"biological_target": "T5, Protein RecA (Mycobacterium tuberculosis, UniProt P9WHJ3)", "T5 sequence (P9WHJ3 whole entry)": "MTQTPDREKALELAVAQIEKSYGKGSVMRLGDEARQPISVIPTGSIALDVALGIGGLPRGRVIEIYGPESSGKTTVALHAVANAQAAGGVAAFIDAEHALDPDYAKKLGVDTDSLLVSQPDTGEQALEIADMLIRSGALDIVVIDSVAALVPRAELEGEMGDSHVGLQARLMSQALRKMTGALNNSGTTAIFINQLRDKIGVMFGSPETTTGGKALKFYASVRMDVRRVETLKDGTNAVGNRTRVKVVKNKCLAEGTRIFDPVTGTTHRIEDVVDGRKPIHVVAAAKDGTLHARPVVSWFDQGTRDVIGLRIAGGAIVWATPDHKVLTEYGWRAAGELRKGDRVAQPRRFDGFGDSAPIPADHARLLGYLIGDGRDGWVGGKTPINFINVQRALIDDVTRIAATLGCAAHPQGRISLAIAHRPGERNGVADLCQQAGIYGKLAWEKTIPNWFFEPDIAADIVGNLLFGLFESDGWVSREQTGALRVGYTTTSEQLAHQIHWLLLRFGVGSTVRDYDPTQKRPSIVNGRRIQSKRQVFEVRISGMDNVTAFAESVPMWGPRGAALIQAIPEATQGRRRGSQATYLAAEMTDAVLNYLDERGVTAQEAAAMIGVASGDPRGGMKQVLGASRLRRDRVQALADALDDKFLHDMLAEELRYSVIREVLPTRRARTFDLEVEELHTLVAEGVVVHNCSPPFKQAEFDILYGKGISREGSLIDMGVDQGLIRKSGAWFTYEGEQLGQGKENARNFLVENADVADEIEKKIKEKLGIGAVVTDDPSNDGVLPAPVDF", "experiment": "Fluorescence Cell-Free Homogeneous Dose Retest to Identify Inhibitors of RecA-Intein Splicing Activity. [Related pubchem assays (depositor defined):AID2097, AID2223, AID489010, AID492950]", "format": "functional"}, "[6]": {"biological_target": "T3, Mannose-6-phosphate isomerase", "experiment": "human PMI inhibitors, high substrate, primary screen, biochemical, fluorescence intensity, high mannose 6-phosphate (AID 1220)"}, "[7]": {"biological_target": "Peroxisome proliferator-activated receptor gamma/Nuclear receptor corepressor 2 (Homo sapiens, UniProt P37231+Q9Y618)", "sequence (P37231 whole entry)": "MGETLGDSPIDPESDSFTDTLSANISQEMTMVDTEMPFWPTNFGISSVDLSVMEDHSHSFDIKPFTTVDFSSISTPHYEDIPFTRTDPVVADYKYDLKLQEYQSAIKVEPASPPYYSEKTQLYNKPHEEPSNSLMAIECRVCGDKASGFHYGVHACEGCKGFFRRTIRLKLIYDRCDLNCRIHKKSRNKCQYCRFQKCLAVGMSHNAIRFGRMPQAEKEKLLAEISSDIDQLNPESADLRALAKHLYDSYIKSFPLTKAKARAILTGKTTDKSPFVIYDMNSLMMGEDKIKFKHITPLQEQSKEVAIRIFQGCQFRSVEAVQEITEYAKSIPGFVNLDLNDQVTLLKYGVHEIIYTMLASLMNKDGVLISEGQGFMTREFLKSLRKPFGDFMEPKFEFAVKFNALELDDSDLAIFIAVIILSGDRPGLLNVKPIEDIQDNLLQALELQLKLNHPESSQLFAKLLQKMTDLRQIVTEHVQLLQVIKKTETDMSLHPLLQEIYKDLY", "sequence (Q9Y618 whole entry)": "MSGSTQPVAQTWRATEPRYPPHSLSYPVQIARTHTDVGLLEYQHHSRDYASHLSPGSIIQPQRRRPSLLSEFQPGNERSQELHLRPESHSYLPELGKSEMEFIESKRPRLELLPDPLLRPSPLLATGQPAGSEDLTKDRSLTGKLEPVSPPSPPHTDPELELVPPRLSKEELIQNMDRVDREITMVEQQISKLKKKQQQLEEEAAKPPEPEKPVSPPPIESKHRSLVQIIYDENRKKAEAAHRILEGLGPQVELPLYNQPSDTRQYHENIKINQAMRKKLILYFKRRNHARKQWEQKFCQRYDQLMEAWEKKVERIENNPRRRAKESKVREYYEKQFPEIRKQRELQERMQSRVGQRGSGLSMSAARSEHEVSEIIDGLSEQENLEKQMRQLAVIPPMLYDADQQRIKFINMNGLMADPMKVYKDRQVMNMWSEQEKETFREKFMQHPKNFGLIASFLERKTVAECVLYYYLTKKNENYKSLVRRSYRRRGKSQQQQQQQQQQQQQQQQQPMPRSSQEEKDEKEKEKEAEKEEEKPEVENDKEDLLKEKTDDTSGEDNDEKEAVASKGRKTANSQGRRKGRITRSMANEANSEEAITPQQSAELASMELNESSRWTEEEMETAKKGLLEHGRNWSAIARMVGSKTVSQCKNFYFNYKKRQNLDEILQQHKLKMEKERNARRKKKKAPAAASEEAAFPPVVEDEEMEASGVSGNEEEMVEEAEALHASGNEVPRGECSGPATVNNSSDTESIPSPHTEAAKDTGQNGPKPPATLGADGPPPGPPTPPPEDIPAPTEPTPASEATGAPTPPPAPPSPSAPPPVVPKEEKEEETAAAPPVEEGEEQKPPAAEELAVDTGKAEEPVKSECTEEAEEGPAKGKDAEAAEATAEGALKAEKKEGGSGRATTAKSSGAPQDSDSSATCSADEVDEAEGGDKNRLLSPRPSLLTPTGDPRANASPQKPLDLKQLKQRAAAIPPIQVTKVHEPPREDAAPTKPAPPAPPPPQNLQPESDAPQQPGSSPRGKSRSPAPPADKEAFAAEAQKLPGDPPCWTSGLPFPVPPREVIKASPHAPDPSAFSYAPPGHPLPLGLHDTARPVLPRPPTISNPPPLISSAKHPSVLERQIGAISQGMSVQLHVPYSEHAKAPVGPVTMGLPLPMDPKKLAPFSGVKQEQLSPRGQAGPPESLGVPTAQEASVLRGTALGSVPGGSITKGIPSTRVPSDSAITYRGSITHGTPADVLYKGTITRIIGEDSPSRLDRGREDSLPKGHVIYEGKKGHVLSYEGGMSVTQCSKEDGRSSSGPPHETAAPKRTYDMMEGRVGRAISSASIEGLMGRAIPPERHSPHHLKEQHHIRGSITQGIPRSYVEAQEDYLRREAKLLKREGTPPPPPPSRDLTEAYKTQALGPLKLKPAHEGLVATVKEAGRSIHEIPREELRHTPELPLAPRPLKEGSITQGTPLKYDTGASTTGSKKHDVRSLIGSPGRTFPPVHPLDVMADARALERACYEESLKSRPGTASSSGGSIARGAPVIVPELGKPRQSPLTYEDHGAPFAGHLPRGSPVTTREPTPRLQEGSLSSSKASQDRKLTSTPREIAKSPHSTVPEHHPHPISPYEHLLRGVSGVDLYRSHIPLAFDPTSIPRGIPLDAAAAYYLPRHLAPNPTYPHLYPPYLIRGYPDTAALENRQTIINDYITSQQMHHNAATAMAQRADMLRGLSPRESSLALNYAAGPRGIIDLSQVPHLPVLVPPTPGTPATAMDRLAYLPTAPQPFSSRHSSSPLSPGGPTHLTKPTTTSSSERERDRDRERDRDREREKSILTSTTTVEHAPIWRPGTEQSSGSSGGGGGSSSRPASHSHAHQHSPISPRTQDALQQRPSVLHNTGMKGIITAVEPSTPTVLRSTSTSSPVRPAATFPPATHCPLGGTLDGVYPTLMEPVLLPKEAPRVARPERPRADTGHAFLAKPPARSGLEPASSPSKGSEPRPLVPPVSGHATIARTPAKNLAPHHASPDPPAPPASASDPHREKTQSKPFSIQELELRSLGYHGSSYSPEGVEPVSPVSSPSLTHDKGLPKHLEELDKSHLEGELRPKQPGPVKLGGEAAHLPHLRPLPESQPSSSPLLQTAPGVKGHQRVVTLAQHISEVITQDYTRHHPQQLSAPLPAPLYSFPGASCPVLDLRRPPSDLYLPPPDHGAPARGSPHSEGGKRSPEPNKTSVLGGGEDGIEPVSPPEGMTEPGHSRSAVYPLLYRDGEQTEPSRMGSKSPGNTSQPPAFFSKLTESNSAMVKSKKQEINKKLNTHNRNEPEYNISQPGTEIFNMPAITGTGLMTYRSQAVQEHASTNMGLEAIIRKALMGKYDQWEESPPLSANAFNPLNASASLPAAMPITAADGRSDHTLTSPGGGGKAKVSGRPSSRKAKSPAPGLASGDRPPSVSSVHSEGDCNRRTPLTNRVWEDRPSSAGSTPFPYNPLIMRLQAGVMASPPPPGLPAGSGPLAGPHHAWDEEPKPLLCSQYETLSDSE", "experiment": "Counterscreen for NR2E3 inverse agonists: TR-FRET-based biochemical high throughput dose response assay to identify inverse agonists of the interaction between peroxisome proliferator-activated receptor gamma (PPARg) and nuclear receptor co-repressor 2 (NCOR2).", "format": "functional"}, "[8]": {"biological_target": "T6, Small ubiquitin-related modifier 1 (Homo sapiens, UniProt P63165)", "T6 sequence (P63165 whole entry)": "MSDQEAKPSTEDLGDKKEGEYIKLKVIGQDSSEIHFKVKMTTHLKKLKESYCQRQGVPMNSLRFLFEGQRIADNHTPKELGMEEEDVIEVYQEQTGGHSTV", "experiment": "inhibitors of SUMO1 peptide binding, dose response, biochemical, fluorescence polarization, uHTS hits (AID 624382)", "format": "functional", "conditions": "read-out: IC50_Mean"}, "[9]": {"biological_target": "T6, Small ubiquitin-related modifier 1", "experiment": "inhibitors of SUMO1 partner interactions, dose response, biochemical, FRET (AID 624383)", "format": "functional", "conditions": "read-out: IC50_Mean"}, "[10]": {"biological_target": "Photoreceptor-specific nuclear receptor (Homo sapiens, UniProt Q9Y5X4)", "sequence (Q9Y5X4 whole entry)": "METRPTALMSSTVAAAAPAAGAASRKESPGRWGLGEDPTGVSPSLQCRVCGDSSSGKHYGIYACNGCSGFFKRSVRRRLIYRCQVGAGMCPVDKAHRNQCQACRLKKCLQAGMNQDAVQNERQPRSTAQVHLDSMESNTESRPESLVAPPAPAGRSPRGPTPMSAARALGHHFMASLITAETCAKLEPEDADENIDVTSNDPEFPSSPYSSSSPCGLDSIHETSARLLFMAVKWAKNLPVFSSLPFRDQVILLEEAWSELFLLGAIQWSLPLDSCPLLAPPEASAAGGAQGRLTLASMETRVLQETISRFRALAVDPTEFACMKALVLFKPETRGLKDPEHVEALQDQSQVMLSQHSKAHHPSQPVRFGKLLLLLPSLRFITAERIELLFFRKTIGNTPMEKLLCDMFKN", "experiment": "NR2E3 inverse agonists, dose response, biochemical, TR-FRET (AID 463256)", "format": "functional"}}, "note": "Activity calls are given as the source filed them."}
{"smiles": "CC[n+]1c(/C=C2/C=CN(CCCS(=O)(=O)[O-])c3ccccc32)sc2ccccc21", "values": [{"measurement": "IC50", "setting": "Insulin-degrading enzyme", "value": "12.3 µM (not active)"}, {"measurement": "IC50", "setting": "[1]", "value": "> 55.7 µM (not active)"}, {"measurement": "IC50", "setting": "[2]", "value": "2.69 µM (active)"}, {"measurement": "IC50", "setting": "[3]", "value": "2.97 µM (active)"}]}
{"smiles": "CCN(CC)c1ccc2oc(=O)c(C)nc2c1", "values": [{"measurement": "AC50", "setting": "[4]", "value": "> 380 µM (inactive)"}, {"measurement": "IC50", "setting": "[5]", "value": "10 µM (active)"}, {"measurement": "IC50", "setting": "Protein skinhead-1", "value": "> 100 µM (inactive)"}, {"measurement": "EC50", "setting": "Protein RecA", "value": "7.63 µM (active)"}, {"measurement": "IC50", "setting": "[6]", "value": "12.7 µM (active)"}]}
{"smiles": "Cc1ccc(NC(=O)CSc2nc3ccccc3c3nc(CCc4c(C)n[nH]c4C)nn23)cc1F", "values": [{"measurement": "IC50", "setting": "[7]", "value": "0.356 µM (active)"}, {"measurement": "IC50", "setting": "[8]", "value": "> 66.6 µM (inactive)"}, {"measurement": "IC50", "setting": "[9]", "value": "3.78 µM (active)"}, {"measurement": "IC50", "setting": "[10]", "value": "0.474 µM (active)"}]}
{"smiles": "CC(C)(C)C(=O)N1CCN(c2ccnc3cc(Cl)ccc23)CC1", "values": [{"measurement": "IC50", "setting": "Insulin-degrading enzyme", "value": "18.6 µM (not active)"}, {"measurement": "IC50", "setting": "[1]", "value": "20.8 µM (not active)"}]}
